Experiments:
[1] = tested on: KMS-12-PE Bcl-2 G101V; assay: In vitro cytotoxicity CellTiter-Glo 48 h, KMS-12-PE Bcl-2 G101V; type: cell-based; settings: for Ratio (G101V/WT): C50 KMS-12-PE Bcl-2 G101V over C50 KMS-12-PE Bcl-2 WT; for IC50: Homo sapiens, KMS-12-PE, 48 h, CellTiter-Glo, C50 = concentration needed to reach 50% of the cellular viability
Summary of the method: (§1)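 Viability measured by CellTiter-Glo luminescence after 48 h compound exposure (11-point curve, 37 °C, 5% CO2). Cells: KMS-12-PE transduced with wild-type or G101V-mutant Bcl-2, FACS-sorted for TagRFP. Reported C50 = concentration reaching 50% cellular viability.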

[2] = Pharmacokinetics in SCID mice; type: in vivo; settings: 25 mg/kg IV bolus; for PK parameters Cinf: concentration at the end of bolus administration; for AUC: mouse, blood, area under curve over 24 h, read-out: PK parameters AUC24
Description: (§2) Pharmacokinetic (PK) and platelet toxicity were investigated in SCID mice. Compounds were administered at 25 mg/kg by IV bolus, and formulated in PEG/Ethanol/NaCl 0.9% (40/10/50 v/v/v).
(§3) Blood samples (3 animals/time point and 3 time points/animal) were collected over 24 h after dosing: 0.05 h, 0.5 h, 1 h, 3 h, 6 h and 24 h for PK and 6 h and 24 h for platelets.
(§4) PK samples were analyzed by liquid chromatography using tandem mass spectrometry detection (LC-MS/MS) and platelet count (109/L) was measured using an hematology analyzer. Percentage of platelet loss was calculated at both time points (T+6 h and 24 h) as compared to a control group of 6 animals. PK parameters (Cinf and AUC24, which correspond to the concentration at the end of bolus administration and the area under curve over 24 h, respectively) were also determined using a non-compartmental analysis.

[3] = tested on: platelets; assay: Platelet depletion in SCID mice; type: in vivo; settings: 25 mg/kg IV bolus, vs control group; for Platelet loss (%) 6 h: 6 h after dosing; for Platelet loss (%) 24 h: 24 h after dosing
Description: as §2, §3, §4

[4] = tested on: KMS-12-PE Bcl-2 WT; assay: In vitro cytotoxicity CellTiter-Glo 48 h, KMS-12-PE Bcl-2 WT; type: cell-based; settings: Homo sapiens, KMS-12-PE, C50 = concentration needed to reach 50% of the cellular viability
Summary of the method: as §1

[5] = biological target: BCL2 WT (Homo sapiens (Human), UniProt P10415); assay: TR-FRET competitive binding assay, BCL2 WT; settings: Ki determined from IC50, read-out: TR_FRET EKI_Bcl2 WT
Summary of the method: (§5)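 Competitive TR-FRET displacement of fluorescein-PUMA peptide (2 or 20 nM) from 0.5 nM terbium-labelled N-terminal Halo-fusion BCL2 (1-207, wild type or mutant) or BCLXL (2-196), expressed in E. coli. Buffer 50 mM Hepes pH 7.5, 150 mM NaCl, 5% DMSO; 2 h at 23°C. 520/495 nm ratio fitted over 11 points for IC50, converted to Ki.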

[6] = biological target: BCL2 G101V (Homo sapiens, UniProt P10415, G101V); assay: TR-FRET competitive binding assay, BCL2 G101V; settings: BCL2 G101V; Ki determined from IC50; read-out: TR_FRET EKI_Bcl2 G101V
Summary of the method: as §5

[7] = tested on: BCL2 G101V; assay: TR-FRET competitive binding assay, BCL2 G101V; design: species or system human; settings: ratio Ki BCL2 G101V / Ki BCL2 WT
Summary of the method: as §5

[8] = biological target: BCL2 D111A (Homo sapiens, UniProt P10415, D111A); assay: TR-FRET competitive binding assay, BCL2 D111A; settings: Ki determined from IC50, read-out: TR_FRET EKI_Bcl2 D111A
Summary of the method: as §5

[9] = biological target: BCL2 F104I (Homo sapiens, UniProt P10415, F104I); assay: TR-FRET competitive binding assay, BCL2 F104I; settings: Ki determined from IC50, read-out: TR_FRET EKI_Bcl2 F104I
Summary of the method: as §5

[10] = biological target: BCL2 D103Y (Homo sapiens, UniProt P10415, D103Y); assay: TR-FRET competitive binding assay, BCL2 D103Y; settings: Ki determined from IC50, read-out: TR_FRET EKI_Bcl2 D103Y
Summary of the method: as §5

[11] = biological target: BCLXL WT (Homo sapiens (Human), UniProt Q07817); assay: TR-FRET competitive binding assay, BCLXL WT; settings: for Ki: BCLXL WT, Ki determined from IC50, read-out: TR_FRET EKI BclxL; for TR_FRET EKI BCLxL/WT selectivty ratio: ratio Ki BCLxL / Ki BCL2 WT
Summary of the method: as §5

BCLXL WT, sequence (Q07817 other isoform, or with tags, fused parts or gaps): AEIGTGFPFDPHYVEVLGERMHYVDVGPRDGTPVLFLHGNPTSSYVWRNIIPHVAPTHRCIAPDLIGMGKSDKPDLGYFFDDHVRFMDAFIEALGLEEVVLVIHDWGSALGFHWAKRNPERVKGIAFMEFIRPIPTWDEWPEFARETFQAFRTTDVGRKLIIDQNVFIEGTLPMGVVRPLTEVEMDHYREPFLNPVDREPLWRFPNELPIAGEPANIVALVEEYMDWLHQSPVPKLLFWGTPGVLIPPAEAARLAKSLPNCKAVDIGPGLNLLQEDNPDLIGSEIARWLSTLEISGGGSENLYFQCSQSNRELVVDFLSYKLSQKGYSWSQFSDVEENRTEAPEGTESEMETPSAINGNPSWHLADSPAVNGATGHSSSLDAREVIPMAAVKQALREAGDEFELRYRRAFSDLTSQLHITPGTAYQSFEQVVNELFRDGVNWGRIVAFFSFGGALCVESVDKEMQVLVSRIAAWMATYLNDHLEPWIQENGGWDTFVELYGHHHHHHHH

Row | PK parameters Cinf [2] | AUC [2] | Platelet loss (%) 6 h [3] | Platelet loss (%) 24 h [3] | Ki [5] | Ki [6] | TR_FRET EKI G101V/WT selectivty ratio [7] | Ki [8] | Ki [9] | Ki [10] | Ki [11] | TR_FRET EKI BCLxL/WT selectivty ratio [11] | Structure (SMILES) | Ratio (G101V/WT) [1] | IC50 [1] | IC50 [4]
1 | 8.2 µM | 9.7 µM·h | 33.7% | 18.2% | 0.34 nM | 0.9 nM | 2.6 | 0.2 nM | 0.27 nM | 0.52 nM | 5.3 nM | 15.6 | Cc1c(N(C(=O)c2cc(-c3cc4c(cc3C(=O)N3Cc5ccccc5C[C@H]3CN3CCCCC3)CN(C(=O)Cc3ccc(OCCC5CCOCC5)cc3F)CC4)n(C)c2C)c2ccc(O)cc2)cc(C#N)n1C [Example 34, N-(5-cyano-1,2-dimethylpyrrol-3-yl)-5-[2-(2-{2-fluoro-4-[2-(oxan-4-yl)ethoxy]phenyl}acetyl)-7-{[(3S)-3-(piperidin-1-ylmethyl)-3,4-dihydro-1H-isoquinolin-2-yl]carbonyl}-3,4-dihydro-1H-isoquinolin-6-yl]-N-(4-hydroxyphenyl)-1,2-dimethylpyrrole-3-carboxamide] | 5.29 | 0.0275 µM | 0.0052 µM
2 | 6.8 µM | 10.8 µM·h | 19.6% | 12.8% | 0.58 nM | 3.5 nM | 6.0 | 1.54 nM | 19.7 nM | 1.09 nM | 48.5 nM | 83.6 | Cc1c(N(C(=O)c2cc(-c3cc4c(cc3C(=O)N3Cc5ccccc5C[C@H]3C)CN(C(=O)Cc3ccc(N5CCN(CC(F)(F)F)CC5)cc3)CC4)n(C)c2C)c2ccc(O)cc2)cc(C#N)n1C [Example 23, N-(5-cyano-1,2-dimethyl-1H-pyrrol-3-yl)-N-(4-hydroxyphenyl)-1,2-dimethyl-5-{7-[(3R)-3-methyl-1,2,3,4-tetrahydroisoquinoline-2-carbonyl]-2-(2-{4-[4-(2,2,2-trifluoroethyl)piperazin-1-yl]phenyl}acetyl)-1,2,3,4-tetrahydroisoquinolin-6-yl}-1H-pyrrole-3-carboxamide] | 9.34 | 0.0898 µM | 0.0096 µM
3 | 18.2 µM | 38.3 µM·h | 23.2% | 15.2% | 0.25 nM | 1.2 nM | 4.8 | 0.59 nM | 6.47 nM | 0.34 nM | 5.6 nM | 22.4 | Cc1c(N(C(=O)c2cc(-c3cc4c(cc3C(=O)N3Cc5ccccc5C[C@H]3C)CN(C(=O)Cc3ccc(C5CCN(CCF)CC5)c(F)c3)CC4)n(C)c2C)c2ccc(O)cc2)cc(C#N)n1C [Example 28, N-(5-cyano-1,2-dimethylpyrrol-3-yl)-5-[2-(2-{3-fluoro-4-[1-(2-fluoroethyl)piperidin-4-yl]phenyl}acetyl)-7-{[(3R)-3-methyl-3,4-dihydro-1H-isoquinolin-2-yl]carbonyl}-3,4-dihydro-1H-isoquinolin-6-yl]-N-(4-hydroxyphenyl)-1,2-dimethylpyrrole-3-carboxamide] | 6.51 | 0.0643 µM | 0.0099 µM
4 | 13.5 µM | 18.5 µM·h | 16.1% | 12.5% | 0.9 nM | 4.9 nM | 5.4 | – | – | 3.7 nM | 53 nM | 58.9 | Cc1c(N(C(=O)c2cc(-c3cc4c(cc3C(=O)N3Cc5ccccc5C[C@H]3C)CN(S(=O)(=O)Cc3ccccc3)CC4)n(C)c2C)c2ccc(O)cc2)cc(C#N)n1C [Example 14, 5-[2-benzylsulfonyl-7-[(3R)-3-methyl-3,4-dihydro-1H-isoquinoline-2-carbonyl]-3,4-dihydro-1H-isoquinolin-6-yl]-N-(5-cyano-1,2-dimethyl-pyrrol-3-yl)-N-(4-hydroxyphenyl)-1,2-dimethyl-pyrrole-3-carboxamide] | 8.86 | 0.0852 µM | 0.0096 µM
5 | 26.5 µM | 26.7 µM·h | 26.9% | 20.2% | 0.2 nM | 0.7 nM | 3.5 | 0.18 nM | 0.46 nM | 0.71 nM | 2.3 nM | 11.5 | Cc1c(N(C(=O)c2cc(-c3cc4c(cc3C(=O)N3Cc5ccccc5C[C@H]3C)CN(C(=O)Cc3ccc(OCCN5C[C@@H](C)O[C@@H](C)C5)cc3)CC4)n(C)c2C)c2ccc(O)cc2)cc(C#N)n1C [Example 39, N-(5-cyano-1,2-dimethyl-1H-pyrrol-3-yl)-5-{2-[2-(4-{2-[cis-2,6-dimethylmorpholin-4-yl]ethoxy}phenyl)acetyl]-7-[(3R)-3-methyl-1,2,3,4-tetrahydroisoquinoline-2-carbonyl]-1,2,3,4-tetrahydroisoquinolin-6-yl}-N-(4-hydroxyphenyl)-1,2-dimethyl-1H-pyrrole-3-carboxamide] | 4.07 | 0.023 µM | 0.0056 µM
6 | 48.5 µM | 30.5 µM·h | 43.5% | 26.9% | 0.06 nM | 0.2 nM | 2.8 | 0.17 nM | 0.28 nM | 0.19 nM | 1.6 nM | 26.7 | Cc1c(N(C(=O)c2cc(-c3cc4c(cc3C(=O)N3Cc5ccccc5C[C@H]3C)CN(C(=O)Cc3ccc(OCCN5CCO[C@H](C)C5)cc3)CC4)n(C)c2C)c2ccc(O)cc2)cc(C#N)n1C [Example 56, N-(5-cyano-1,2-dimethyl-1H-pyrrol-3-yl)-N-(4-hydroxyphenyl)-1,2-dimethyl-5-{7-[(3R)-3-methyl-1,2,3,4-tetrahydroisoquinoline-2-carbonyl]-2-(2-{4-[2-((2R)-2-methylmorpholin-4-yl)ethoxy]phenyl}acetyl)-1,2,3,4-tetrahydroisoquinolin-6-yl}-1H-pyrrole-3-carboxamide] | 4.21 | 0.0201 µM | 0.0048 µM
7 | 8.4 µM | 12.6 µM·h | 33.5% | 22.5% | 0.15 nM | 0.5 nM | 3.3 | 0.1 nM | 0.5 nM | 0.22 nM | 3.7 nM | 24.7 | COc1ccc(CC(=O)N2CCc3cc(-c4cc(C(=O)N(c5ccc(O)cc5)c5cc(C#N)n(C)c5C)c(C)n4C)c(C(=O)N4Cc5ccccc5C[C@H]4CN4CCCCC4)cc3C2)c(F)c1 [Example 33, N-(5-cyano-1,2-dimethylpyrrol-3-yl)-5-{2-[2-(2-fluoro-4-methoxyphenyl)acetyl]-7-{[(3S)-3-(piperidin-1-ylmethyl)-3,4-dihydro-1H-isoquinolin-2-yl]carbonyl}-3,4-dihydro-1H-isoquinolin-6-yl}-N-(4-hydroxyphenyl)-1,2-dimethylpyrrole-3-carboxamide] | 9.09 | 0.0491 µM | 0.0054 µM

Reference: patent US20250179047A1, “5-[7-(3,4-DIHYDRO-1H-ISOQUINOLINE-2-CARBONYL)-1,2,3,4 TETRAHYDROISOQUINOLIN-6-YL]-1H-PYRROLE-3-CARBOXAMIDE DERIVATIVES, PHARMACEUTICAL COMPOSITIONS CONTAINING THEM AND THEIR USES AS PRO-APOPTOTIC AGENTS” (LES LABORATOIRES SERVIER, priority 2022, published 2025)
